Here are results for 12 compounds from ChEMBL document CHEMBL1201862, “PubChem BioAssay data set” (2004).

Common to all, as to assay: growth of human tumour cells (NCI), 48 h
Assay [1] has as its system NCI-H460.
Assay [2] deals with U-251.
Assay [3] concerns SF-268.
Assay [4] concerns HOP-62.
For assay [5], the system named is OVCAR-4.
The subject of assay [6] is COLO 205.
Assay [7] relates to LXFL 529.
For assay [8], the system named is SW-620.
For assay [9], the system named is HCC 2998.
Assay [10] concerns SF-295.
The test system of assay [11] is SNB-75.
Assay [12] concerns RXF 393.
Assay [13] deals with SK-MEL-5.
Assay [14] deals with HCT-15.
In assay [15] the test system is CCRF-CEM.
Assay [16] relates to UACC-62.
Assay [17] deals with MCF7.
In assay [18] the test system is MDA-N.
For assay [19], the system named is SR.
The subject of assay [20] is MDA-MB-231.

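Growth conditions: 96-well plates. Treatment: test compound, 48 hours, 5 concentrations. Analysis: linear interpolation between bracketing concentrations; unreached endpoints set to highest concentration. The concentration for 50% growth inhibition is given as GI50.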 Active and inactive are the calls of the source. Cut-off read from the data, not from the text of the source: active = GI50 up to about 1.1 µM and inactive = higher. A value given as a limit tells only on which side of the number the result lay.

Take `CC(C)=CC(=O)C1c2cccc(O)c2C(=O)c2c(O)cc(C)cc21` (stereo not given): the GI50 in assay [1] is 2.32 µM (inactive); in assay [2] it was 1.73 µM (inactive); in [3], 2.12 µM (inactive); in [4], 2.86 µM (inactive); in assay [5], 2.13 µM (inactive); in assay [6], 1.79 µM (inactive). Further, the GI50 was 2.04 µM (inactive) in assay [7]; 3.33 µM (inactive) in [8]; 1.2 µM (inactive) in [9]; 1.84 µM (inactive) in [10]; 2.12 µM (inactive) in assay [11]; 2.16 µM (inactive) in assay [12]. The GI50 in [13] was 2.05 µM (inactive); in [14], 3.24 µM; in assay [15], 2.55 µM (inactive).

As to `COc1cc([C@@H]2c3cc4c(cc3[C@@H](NC(=O)c3ccc(N)cc3)C3COC(=O)[C@@H]32)OCO4)cc(OC)c1O` (stereo not given in full), the GI50 in [1] was < 0.01 µM (active); in assay [2], 0.362 µM (active); in [3], 2.41 µM (inactive); in assay [4], 0.535 µM (active); in assay [5], 93.8 µM (inactive); in assay [6], 10.8 µM (inactive). For the same compound, the GI50 in assay [7] is 13.9 µM (inactive); in assay [8], 1.03 µM (active); in [9], 3.61 µM (inactive); in assay [10] it was 1.98 µM (inactive); in [11], 1.29 µM (inactive); in assay [12], 15.7 µM (inactive). In addition, the GI50 in assay [16] is 1.19 µM (inactive); in [13], 2.81 µM (inactive); in assay [14], 12.6 µM; in [15], 0.292 µM (active).

Consider `CCCCCCC(C)OC(=O)/C=C(\CC(=O)OC(C)CCCCCC)C(=O)OC(C)CCCCCC` (stereo not given), for which the GI50 in assay [1], in assay [2], in assay [3], in assay [4], in [5] and in assay [6] was > 100 µM (inactive) in each case. The GI50 in assay [7], in assay [8], in assay [9], in [10], in assay [11] and in assay [12] was > 100 µM (inactive) each time. In addition, the GI50 in assay [16] is > 100 µM (inactive); in [13], > 100 µM (inactive); in assay [14], above 100 µM.

`C=C(COC(C)=O)CC(/C=C(\C)CCC=C(C)C)OC(C)=O` (stereo not given): the GI50 in assay [1], in assay [2], in [3], in assay [4], in assay [5] and in assay [6] was > 100 µM (inactive) throughout. Also, the GI50 is > 100 µM (inactive) in assay [7]; > 100 µM (inactive) in assay [8]; > 100 µM (inactive) in assay [9]; > 100 µM (inactive) in assay [10]; 50.6 µM (inactive) in [11]; > 100 µM (inactive) in assay [12]. In addition, the GI50 in assay [16] is > 100 µM (inactive); in assay [13] it was > 100 µM (inactive); in [14], above 100 µM; in assay [15] it was 70.5 µM (inactive).

As for `COC1OC(COCc2ccc(Cl)cc2)C(OCc2ccc(Cl)cc2)C1O` (stereo not given), the GI50 in assay [1] is 17.4 µM (inactive); in assay [2], 15.6 µM (inactive); in [3], 17.1 µM (inactive); in assay [4], 17.5 µM (inactive); in assay [5], 20.6 µM (inactive); in [6], 19 µM (inactive). In addition, the GI50 was 18.4 µM (inactive) in [7]; 15.4 µM (inactive) in assay [8]; 17.7 µM (inactive) in [9]; 18 µM (inactive) in assay [10]; 17.5 µM (inactive) in assay [11]; 15.1 µM (inactive) in assay [12]. In addition, the GI50 was 16.2 µM (inactive) in [16], 15.3 µM (inactive) in [13], 16 µM in [14] and 19.4 µM (inactive) in assay [15].

Take `O=C(O)c1cc(/C=C/c2ccc(O)c(O)c2)ccc1O`: the GI50 in assay [17] is 23.1 µM (inactive); in assay [18], 34.8 µM (inactive); in [1] it was > 100 µM (inactive); in [2], > 100 µM (inactive); in assay [19], 38.3 µM (inactive); in assay [3], > 100 µM (inactive). In addition, the GI50 in [4] was > 100 µM (inactive); in [5], > 100 µM (inactive); in assay [6], > 100 µM (inactive); in [8], > 10 µM (inactive); in [9], > 100 µM (inactive); in [10], > 100 µM (inactive). Besides, the GI50 in assay [11] was > 100 µM (inactive); in assay [12], 28.1 µM (inactive); in assay [16], > 100 µM (inactive); in assay [13], > 100 µM (inactive); in assay [14] it was above 100 µM; in [20], > 100 µM (inactive). Further, the GI50 in assay [15] was 24.5 µM (inactive).

As to `O=c1[nH]nc(Cc2ccccc2)n1/N=C\c1ccccc1`, the GI50 in [17] was > 100 µM (inactive); in assay [18], > 100 µM (inactive); in [1] it was > 100 µM (inactive); in assay [2], 37.1 µM (inactive); in [19], > 100 µM (inactive); in assay [3], > 10 µM (inactive). Moreover, the GI50 in assay [4] was 56.6 µM (inactive); in assay [5], > 100 µM (inactive); in assay [6], > 100 µM (inactive); in [8] it was > 100 µM (inactive); in assay [9], > 100 µM (inactive); in assay [10], 43.9 µM (inactive). The GI50 was 32.3 µM (inactive) in assay [11]; 24.6 µM (inactive) in [12]; 95.5 µM (inactive) in assay [16]; > 100 µM (inactive) in assay [13]; above 100 µM in assay [14]; > 100 µM (inactive) in assay [20]. For the same compound, in [15], the GI50 was > 100 µM (inactive).

For the compound `CC(C)=CCOc1cc(NC(=S)c2ccoc2C)ccc1Cl` [UC 781], the GI50 is > 100 µM (inactive) in assay [17]; > 100 µM (inactive) in assay [18]; > 100 µM (inactive) in [1]; 48.5 µM (inactive) in assay [2]; > 100 µM (inactive) in assay [19]; 45.5 µM (inactive) in assay [3]. Besides, the GI50 is 84.1 µM (inactive) in assay [4]; > 100 µM (inactive) in assay [5]; > 100 µM (inactive) in assay [6]; > 100 µM (inactive) in [8]; > 100 µM (inactive) in assay [9]; > 100 µM (inactive) in assay [10]. Further, the GI50 in [11] is 16.3 µM (inactive); in [12], > 100 µM (inactive); in assay [16], > 100 µM (inactive); in assay [13], > 100 µM (inactive); in [14], above 100 µM; in assay [20] it was 35.5 µM (inactive). In addition, the GI50 in [15] is 39.6 µM (inactive).

Turning to `CC(=O)N1NC(c2ccccc2)=NC(=O)C1c1cc(C)c(O)c(C)c1` (stereo not given), the GI50 is 21.2 µM (inactive) in assay [17]; 54.6 µM (inactive) in [18]; 31.1 µM (inactive) in [1]; 19.2 µM (inactive) in assay [2]; 49.3 µM (inactive) in [19]; 16.9 µM (inactive) in [3]. The GI50 in assay [4] was 16.2 µM (inactive); in [5], 19.8 µM (inactive); in assay [6] it was > 100 µM (inactive); in assay [8], 44.4 µM (inactive); in [9], 20 µM (inactive); in [10] it was 19.1 µM (inactive). Besides, the GI50 was 19.9 µM (inactive) in assay [11]; 17.5 µM (inactive) in assay [12]; 20.3 µM (inactive) in assay [16]; 20.3 µM (inactive) in assay [13]; 40 µM in [14]; 21.7 µM (inactive) in assay [20]. In addition, the GI50 in [15] is > 100 µM (inactive).

As to `COC12OCCN(CCO)C1=CC(=O)C1(C)N=NC(C)C12` (stereo not given), the GI50 in [1], in assay [2], in assay [6], in assay [7], in assay [8] and in [9] was > 100 µM (inactive) throughout. For the same compound, the GI50 in assay [10] was > 100 µM (inactive); in [11] it was > 100 µM (inactive); in [12], > 100 µM (inactive); in assay [16], > 100 µM (inactive); in assay [13], > 100 µM (inactive); in assay [14] it was above 100 µM. Besides, in [15], the GI50 is > 100 µM (inactive).

In the case of `Cn1cnc(N)c(N=O)c1=O`, the GI50 in [17], in [18], in assay [1], in [2], in assay [19] and in assay [3] was > 10 µM (inactive) throughout. For the same compound, the GI50 in assay [4], in [5], in [6], in assay [8], in [9] and in assay [10] was > 10 µM (inactive) each time. Besides, the GI50 in assay [11] was > 10 µM (inactive); in assay [12] it was > 10 µM (inactive); in assay [16] it was > 10 µM (inactive); in assay [13], > 10 µM (inactive); in assay [14], above 10 µM; in [20], > 10 µM (inactive). In addition, the GI50 in assay [15] is > 10 µM (inactive).

For `CC(=O)NC1=C(C)C(=O)c2c(nc3n2CCC3OC(=O)c2ccccc2)C1=N` (stereo not given), the GI50 is 0.755 µM (active) in [17]; 0.182 µM (active) in assay [18]; 1.99 µM (inactive) in assay [1]; 3.22 µM (inactive) in assay [2]; 2.29 µM (inactive) in assay [19]; 2.18 µM (inactive) in assay [3]. Moreover, the GI50 in assay [4] is 3.09 µM (inactive); in assay [5] it was 0.518 µM (active); in assay [6], 1.38 µM (inactive); in [8] it was 1.63 µM (inactive); in assay [9] it was 2.06 µM (inactive); in assay [10] it was 2.86 µM (inactive). Further, the GI50 in assay [11] is 2.37 µM (inactive); in [12], 1.29 µM (inactive); in assay [16], 0.314 µM (active); in [13], 1.42 µM (inactive); in assay [14], 2.72 µM; in [20], 2.07 µM (inactive). In addition, the GI50 in assay [15] is 1.58 µM (inactive).
